Laboratory results reported in PubChem BioAssay (NCI).
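Exposure lasted 48 hours, with cells grown in 96-well plates and compounds tested at five concentrations. TGI marks complete inhibition of growth.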

What was measured:
Assay in all cases: NCI-60 cell line screen, 48 h
UACC-257 melanoma = system: UACC-257 melanoma
NCI-H23 lung = system: NCI-H23 lung
RPMI-8226 leukemia = system: RPMI-8226 leukemia
SW-620 colon = system: SW-620 colon
RXF 393 renal = system: RXF 393 renal
K-562 leukemia = system: K-562 leukemia
KM12 colon = system: KM12 colon
HCC-2998 colon = system: HCC-2998 colon
SK-MEL-5 melanoma = system: SK-MEL-5 melanoma
SN12C renal = system: SN12C renal
SF-295 CNS = system: SF-295 CNS
HL-60(TB) leukemia = system: HL-60(TB) leukemia
SK-MEL-2 melanoma = system: SK-MEL-2 melanoma
A549 NSCLC = system: A549 NSCLC
HT29 colon = system: HT29 colon
OVCAR-8 ovarian = system: OVCAR-8 ovarian
OVCAR-5 ovarian = system: OVCAR-5 ovarian
SNB-19 CNS = system: SNB-19 CNS
DMS 114 small cell lung = system: DMS 114 small cell lung
LOX IMVI melanoma = system: LOX IMVI melanoma
UACC-62 melanoma = system: UACC-62 melanoma
TK-10 renal = system: TK-10 renal
UO-31 renal = system: UO-31 renal
SNB-75 CNS = system: SNB-75 CNS
SR leukemia = system: SR leukemia
M19-MEL melanoma = system: M19-MEL melanoma
EKVX NSCLC = system: EKVX NSCLC
COLO 205 colon = system: COLO 205 colon
HOP-62 NSCLC = system: HOP-62 NSCLC
OVCAR-4 ovarian = system: OVCAR-4 ovarian
786-0 renal = system: 786-0 renal
ACHN renal = system: ACHN renal
NCI-H460 lung = system: NCI-H460 lung
U251 CNS = system: U251 CNS
SK-OV-3 ovarian = system: SK-OV-3 ovarian
SNB-78 CNS = system: SNB-78 CNS
OVCAR-3 ovarian = system: OVCAR-3 ovarian
M14 melanoma = system: M14 melanoma
SK-MEL-28 melanoma = system: SK-MEL-28 melanoma
MALME-3M melanoma = system: MALME-3M melanoma
MOLT-4 leukemia = system: MOLT-4 leukemia
NCI-H226 lung = system: NCI-H226 lung
IGROV1 ovarian = system: IGROV1 ovarian
DMS 273 small cell lung = system: DMS 273 small cell lung
SF-268 CNS = system: SF-268 CNS
HCT-116 colon = system: HCT-116 colon
NCI-H522 lung = system: NCI-H522 lung
XF 498 CNS = system: XF 498 CNS
RXF-631 renal = system: RXF-631 renal
HCT-15 colon = system: HCT-15 colon
DLD-1 colon = system: DLD-1 colon
KM20L2 colon = system: KM20L2 colon
A498 renal = system: A498 renal
LXFL 529 NSCLC = system: LXFL 529 NSCLC
CAKI-1 renal = system: CAKI-1 renal
SF-539 CNS = system: SF-539 CNS
HOP-18 NSCLC = system: HOP-18 NSCLC
HOP-92 NSCLC = system: HOP-92 NSCLC
CCRF-CEM leukemia = system: CCRF-CEM leukemia
MDA-N = system: MDA-N
HS 578T breast = system: HS 578T breast
DU-145 prostate = system: DU-145 prostate
NCI/ADR-RES ovarian = system: NCI/ADR-RES ovarian
BT-549 breast = system: BT-549 breast
MCF7 breast = system: MCF7 breast
PC-3 prostate = system: PC-3 prostate
MDA-MB-231 breast = system: MDA-MB-231 breast
MDA-MB-435 = system: MDA-MB-435
T-47D breast = system: T-47D breast

Measured: TGI

Clc1ccc2c(c1)[nH]c1c2nc2sccn21
not listed: MDA-N | HS 578T breast | DU-145 prostate | NCI/ADR-RES ovarian | BT-549 breast | MCF7 breast | PC-3 prostate | MDA-MB-231 breast | MDA-MB-435 | T-47D breast
> 100 µM: all other assays above

O=C1C(Cl)=C(c2ccc([N+](=O)[O-])cc2)C(=O)c2c(O)cccc21
4.34 µM: IGROV1 ovarian
17.1 µM: NCI/ADR-RES ovarian
3.35 µM: HCT-15 colon
2.04 µM: HOP-18 NSCLC
2.55 µM: DLD-1 colon
3.52 µM: M19-MEL melanoma
10.7 µM: SN12C renal | TK-10 renal
1.13 µM: SF-539 CNS
6.53 µM: MDA-N
5.98 µM: OVCAR-5 ovarian
0.545 µM: NCI-H522 lung
12.5 µM: A498 renal
3.13 µM: MDA-MB-231 breast
0.786 µM: DMS 114 small cell lung
1.95 µM: XF 498 CNS
25 µM: A549 NSCLC
7.13 µM: SNB-75 CNS
3.49 µM: RXF 393 renal
2.36 µM: ACHN renal
33.4 µM: EKVX NSCLC
5.68 µM: SNB-19 CNS
0.94 µM: LXFL 529 NSCLC
4.8 µM: MDA-MB-435
3.63 µM: KM12 colon
4.72 µM: BT-549 breast
6.24 µM: HCC-2998 colon
8.64 µM: SK-OV-3 ovarian
14.2 µM: MCF7 breast
19.4 µM: DU-145 prostate
3.15 µM: HOP-92 NSCLC
5.78 µM: OVCAR-8 ovarian
5.54 µM: T-47D breast
3.55 µM: HCT-116 colon
6.99 µM: NCI-H460 lung
3.46 µM: SK-MEL-5 melanoma
4.14 µM: NCI-H23 lung
14.8 µM: HOP-62 NSCLC
4.13 µM: HS 578T breast
4.16 µM: SK-MEL-28 melanoma
5.74 µM: NCI-H226 lung
3.66 µM: SW-620 colon | COLO 205 colon | M14 melanoma
1.98 µM: UACC-62 melanoma
3.86 µM: CAKI-1 renal
3.6 µM: LOX IMVI melanoma
2.22 µM: SK-MEL-2 melanoma | U251 CNS
4.84 µM: UACC-257 melanoma
3.11 µM: OVCAR-3 ovarian
8.19 µM: SF-295 CNS
3.84 µM: UO-31 renal
8.82 µM: 786-0 renal
7.28 µM: PC-3 prostate
4.62 µM: OVCAR-4 ovarian
4.49 µM: MALME-3M melanoma
7.37 µM: HT29 colon
22.4 µM: SF-268 CNS
not listed: SNB-78 CNS | RXF-631 renal | KM20L2 colon
> 100 µM: all other assays above

Clc1ccc(-c2c(C3=NCCN3)nnn2-c2ccccc2)cc1
not listed: RXF-631 renal | MDA-N | HS 578T breast | DU-145 prostate | NCI/ADR-RES ovarian | BT-549 breast | MCF7 breast | PC-3 prostate | MDA-MB-231 breast | MDA-MB-435 | T-47D breast
> 100 µM: all other assays above
